Source: ChEMBL document CHEMBL5113502, “Accommodation of ring C expanded deoxyvasicinone in the HDAC inhibitory pharmacophore culminates into a tractable anti-lung cancer agent and pH-responsive nanocarrier” (Eur J Med Chem, 2022)

Key:
Format in all cases: functional, cell-based
A549 = assay: Cytotoxicity against human A549 cells assessed as cell viability after 48 hrs by MTT assay; conditions: A549, 48 h
HOP-62 = assay: Cytotoxicity against human HOP-62 cells assessed as cell viability after 48 hrs by MTT assay; conditions: HOP-62, 48 h
NCI-H727 = assay: Cytotoxicity against human NCI-H727 cells assessed as cell viability after 48 hrs by MTT assay; conditions: NCI-H727, 48 h

| Compound | IC50 (A549) [µM] | IC50 (HOP-62) [µM] | IC50 (NCI-H727) [µM] |
| --- | --- | --- | --- |
| O=C(CCCCCCCC(=O)Nc1ccc2nc3n(c(=O)c2c1)CCCCC3)NO | 12 | – | – |
| O=C(/C=C/c1cccc(S(=O)(=O)Nc2ccc3nc4n(c(=O)c3c2)CCCCC4)c1)NO | 3 | – | – |
| O=C(CCCCCC(=O)Nc1ccc2nc3n(c(=O)c2c1)CCCCC3)NO | 11 | – | – |
| O=C(CCCCCCC(=O)Nc1ccc2nc3n(c(=O)c2c1)CCC3)NO | 17 | – | – |
| O=C(CCCCCCC(=O)Nc1ccc2nc3n(c(=O)c2c1)CCCCCC3)NO | 22 | – | – |
| O=C(/C=C/c1ccc(CNc2ccc3nc4n(c(=O)c3c2)CCCC4)cc1)NO | 1.56 | 1.71 | 1.34 |
| O=C(/C=C/c1ccc(CNc2ccc3nc4n(c(=O)c3c2)CCC4)cc1)NO | 1.21 | 1.78 | 1.11 |
| O=C(CCCCCCC(=O)Nc1ccc2nc3n(c(=O)c2c1)CCCC3)NO | 16 | – | – |
| O=C(NO)c1ccc(C(=O)Nc2ccc3nc4n(c(=O)c3c2)CCCCC4)cc1 | 9 | – | – |
| O=C(/C=C/c1ccc(CNc2ccc3nc4n(c(=O)c3c2)CCCCCC4)cc1)NO | 1.89 | 1.95 | 1.78 |
| O=C(CCCCCCCCC(=O)Nc1ccc2nc3n(c(=O)c2c1)CCCCC3)NO | 11 | – | – |
| O=C(CCCCCCC(=O)Nc1ccc2nc3n(c(=O)c2c1)CCCCC3)NO | 14 | – | – |
| O=c1c2ccccc2nc2n1CCCCC2 | 6 | – | – |
| O=C(NO)c1ccc(CNc2ccc3nc4n(c(=O)c3c2)CCCCC4)cc1 | 10 | – | – |
